Values joined by “and” are separate entries in the source; they are usually repeats but may differ in a detail not shown here. Equal entries are not always repeated. Values belong to the compound of their own block, whether it stands above or below them.
What was measured:
[1] = system: C. albicans (ATCC 90028); assay: Antifungal MIC, C. albicans; format: cell-based; settings: Candida albicans, ATCC90028, mean (n = 2)
Procedure: (§1) The susceptibility of bacterial strains S. aureus (ATCC 25,923 or 29213), E. coli (ATCC 25922), and P. aeruginosa (ATCC 27853) to antibiotics and compounds was determined according to previously reported protocols. Additional antimicrobial evaluation against MRSA (ATCC 43300), Klebsiella pneumoniae (ATCC 700603), Acinetobacter baumannii (ATCC 19606), Candida albicans (ATCC 90028), and Cryptococcus neoformans (ATCC 208821) was undertaken at the Community for Open Antimicrobial Drug Discovery at The University of Queensland (Australia) according to their standard protocols as reported previously.

[2] = Cytotoxicity assay; format: cell-based, human; settings: human, HEK293 human embryonic kidney cells, concentration at 50% cytotoxicity on HEK293 cells; mean (n = 2)
Procedure: Cytotoxicity assays were conducted using the protocols previously reported.

[3] = system: C. neoformans (ATCC 208821); assay: Antifungal MIC, C. neoformans; format: cell-based, Cryptococcus neoformans; settings: Cryptococcus neoformans, ATCC208821, C. neoformans (ATCC 208821); mean (n = 2)
Procedure: as §1

[4] = system: P. aeruginosa (ATCC 27853); assay: Enhancement of doxycycline activity; format: cell-based, Pseudomonas aeruginosa; settings: for Dox/P.a: concentration required to restore doxycycline activity (combination MIC): doxycycline fixed at 4.5 µM (2 µg/mL), P. aeruginosa (ATCC 27853); for Dox/P.a fold change: ratio between intrinsic MIC of test compound and combination MIC, doxycycline 4.5 µM, P. aeruginosa
[5] = system: P. aeruginosa (PAO1 or ATCC 27853); assay: Antimicrobial MIC, P. aeruginosa; format: cell-based; settings: Pseudomonas aeruginosa; P. aeruginosa (PAO1 or ATCC 27853); mean (n = 3); read-out: MIC P. a
Procedure: as §1

[6] = system: E. coli (ATCC 25922); assay: Enhancement of erythromycin activity; format: cell-based, Escherichia coli; settings: for Eryth/E.c: concentration required to restore erythromycin activity (combination MIC): erythromycin fixed at 10.9 µM (8 µg/mL), E. coli (ATCC 25922); for Eryth/E.c fold change: ratio between intrinsic MIC of test compound and combination MIC, erythromycin 10.9 µM, E. coli
Procedure: Restoring enhancer concentrations were determined using previously reported protocols.

[7] = system: MRSA (ATCC 43300); assay: Antimicrobial MIC, MRSA; format: cell-based, methicillin-resistant Staphylococcus aureus; settings: Staphylococcus aureus, MRSA (ATCC 43300); mean (n = 2); read-out: MIC MRSA
Procedure: as §1

[8] = system: A. baumannii (ATCC 19606); assay: Antimicrobial MIC, A. baumannii; format: cell-based, Acinetobacter baumannii; settings: Acinetobacter baumannii, ATCC19606, A. baumannii (ATCC 19606); mean (n = 2)
Procedure: as §1

[9] = system: E. coli (ATCC 25922); assay: Antimicrobial MIC, E. coli; format: cell-based, Escherichia coli; settings: Escherichia coli, ATCC25922, E. coli (ATCC 25922); mean (n = 2)
Procedure: as §1

[10] = system: S. aureus (ATCC 25,923 or ATCC 29213); assay: Antimicrobial MIC, S. aureus; format: cell-based, Staphylococcus aureus; settings: Staphylococcus aureus, mean (n = 3)
Procedure: as §1

[11] = system: K. pneumoniae (ATCC 700603); assay: Antimicrobial MIC, K. pneumoniae; format: cell-based; settings: Klebsiella pneumoniae, ATCC700603, mean (n = 2)
Procedure: as §1

[12] = system: human red blood cells; assay: Hemolytic assay; format: cell-based; settings: concentration at 10% hemolytic activity on human red blood cells; mean (n = 2)
Procedure: Hemolysis assays were conducted using the protocols previously reported.

Compound: O=C(NCCCNCCCCCCNCCCNC(=O)c1cccc2ccccc12)c1cccc2ccccc12.O=C(O)C(F)(F)F.O=C(O)C(F)(F)F [Compound 17b, N^1,N^6-Bis(3-(1-naphthamido)propyl)hexane-1,6-diaminium 2,2,2-trifluoroacetate]
MIC [1]: > 41.7 µM
IC50 [2]: > 41.7 µM
MIC [3]: > 41.7 µM
Dox/P.a: concentration required to restore doxycycline activity (combination MIC) [4]: 12.5 µM
Dox/P.a fold change [4]: 16 fold
MIC [5]: 200 µM
Eryth/E.c: concentration required to restore erythromycin activity (combination MIC) [6]: 100 µM
Eryth/E.c fold change [6]: 2 fold
MIC [7]: > 41.7 µM
MIC [8]: > 41.7 µM
melting point: 225 to 227 °C
MIC [9]: 200 µM
MIC [10]: 200 µM
MIC [11]: > 41.7 µM
Hemolysis HC10 [12]: >41.7 µM

Compound: O=C(NCCCNCCCCNCCCNC(=O)c1cccc2ccccc12)c1cccc2ccccc12.O=C(O)C(F)(F)F.O=C(O)C(F)(F)F [Compound 17a, N^1,N^4-Bis(3-(1-naphthamido)propyl)butane-1,4-diaminium 2,2,2-trifluoroacetate]
MIC [1]: > 43.3 µM
MIC [3]: > 43.3 µM
Dox/P.a: concentration required to restore doxycycline activity (combination MIC) [4]: 271 µM
Dox/P.a fold change [4]: 2.5 fold
MIC [5]: 677 µM
Eryth/E.c: concentration required to restore erythromycin activity (combination MIC) [6]: 67.7 µM
Eryth/E.c fold change [6]: 10 fold
MIC [7]: > 43.3 µM
MIC [8]: > 43.3 µM
melting point: 238 to 239 °C
MIC [9]: 677 µM
MIC [10]: 677 µM
MIC [11]: > 43.3 µM

Compound: O=C(O)CCC(=O)Nc1ccc(-c2ccccc2)cc1 [Compound 12, 4-([1,1’-Biphenyl]-4-ylamino)-4-oxobutanoic Acid]
melting point: > 230 °C

Compound: O=C(O)CCC(=O)Nc1cccc2ccccc12 [Compound 9, 4-(Naphthalen-1-ylamino)-4-oxobutanoic Acid]
melting point: 165 to 167 °C

Compound: O=C(NCCCNCCCCCCCNCCCNC(=O)c1ccc2ccccc2c1)c1ccc2ccccc2c1.O=C(O)C(F)(F)F.O=C(O)C(F)(F)F [Compound 19c, N^1,N^7-Bis(3-(2-naphthamido)propyl)heptane-1,7-diaminium 2,2,2-trifluoroacetate]
MIC [1]: > 41 µM
IC50 [2]: 20.5 µM
MIC [3]: ≤ 0.32 µM
Dox/P.a: concentration required to restore doxycycline activity (combination MIC) [4]: 4.0 µM and 4.00 µM
Dox/P.a fold change [4]: 8 fold
MIC [5]: 32 µM
Eryth/E.c: concentration required to restore erythromycin activity (combination MIC) [6]: 4.0 µM
Eryth/E.c fold change [6]: 4 fold
MIC [7]: ≤ 0.32 µM
MIC [8]: > 41 µM
MIC [9]: 16 µM
MIC [10]: 16 µM
MIC [11]: > 41 µM
Hemolysis HC10 [12]: >41.0 µM

Compound: O=C(CCC(=O)Nc1cccc2ccccc12)NCCCNCCCCCCCCNCCCNC(=O)CCC(=O)Nc1cccc2ccccc12.O=C(O)C(F)(F)F.O=C(O)C(F)(F)F [Compound 18d, N^1,N^8-Bis(3-(4-(naphthalen-1-ylamino)-4-oxobutanamido)propyl)octane-1,8-diaminium 2,2,2-trifluoroacetate]
MIC [1]: > 34.2 µM
IC50 [2]: > 34.2 µM
MIC [3]: > 34.2 µM
Dox/P.a: concentration required to restore doxycycline activity (combination MIC) [4]: > 107 µM
Dox/P.a fold change [4]: 1 fold
MIC [5]: > 107 µM
Eryth/E.c: concentration required to restore erythromycin activity (combination MIC) [6]: 107 µM
Eryth/E.c fold change [6]: 1 fold
MIC [7]: > 34.2 µM
MIC [8]: > 34.2 µM
MIC [9]: > 107 µM
MIC [10]: 107 µM
MIC [11]: > 34.2 µM
Hemolysis HC10 [12]: >34.2 µM

Now from value to compound, other results behind:

MIC [1]: > 32.4 µM
MIC [3]: > 32.4 µM
Dox/P.a: concentration required to restore doxycycline activity (combination MIC) [4]: 300 µM
MIC [5]: 300 µM
Eryth/E.c: concentration required to restore erythromycin activity (combination MIC) [6]: 300 µM
MIC [7]: 0.506 µM
MIC [8]: > 32.4 µM
melting point: 182 to 184 °C
MIC [9]: 300 µM
MIC [10]: 300 µM
MIC [11]: > 32.4 µM
Compound: O=C(CCC(=O)Nc1ccc(-c2ccccc2)cc1)NCCCNCCCCCCCCNCCCNC(=O)CCC(=O)Nc1ccc(-c2ccccc2)cc1.O=C(O)C(F)(F)F.O=C(O)C(F)(F)F [Compound 21d, N^1,N^8-Bis(3-(4-([1,1’-biphenyl]-4-ylamino)-4-oxobutanamido)propyl)octane-1,8-diaminium 2,2,2-trifluoroacetate]
IC50 [2]: > 32.4 µM
Dox/P.a fold change [4]: 1 fold
Eryth/E.c fold change [6]: 1 fold
Hemolysis HC10 [12]: >32.4 µM

MIC [1]: 31.5 µM
MIC [3]: 15.7 µM
Dox/P.a: concentration required to restore doxycycline activity (combination MIC) [4]: 300 µM
MIC [5]: 300 µM
Eryth/E.c: concentration required to restore erythromycin activity (combination MIC) [6]: 300 µM
MIC [7]: 0.246 µM
MIC [8]: > 31.5 µM
melting point: 184 to 186 °C
MIC [9]: 300 µM
MIC [10]: 300 µM
MIC [11]: > 31.5 µM
Compound: O=C(CCC(=O)Nc1ccc(-c2ccccc2)cc1)NCCCNCCCCCCCCCCNCCCNC(=O)CCC(=O)Nc1ccc(-c2ccccc2)cc1.O=C(O)C(F)(F)F.O=C(O)C(F)(F)F [Compound 21e, N^1,N^10-Bis(3-(4-([1,1’-biphenyl]-4-ylamino)-4-oxobutanamido)propyl)decane-1,10-diaminium 2,2,2-trifluoroacetate]
IC50 [2]: > 31.5 µM
Dox/P.a fold change [4]: 1 fold
Eryth/E.c fold change [6]: 1 fold
Hemolysis HC10 [12]: 6.3 µM and 6.32 µM

MIC [1]: > 34.2 µM
MIC [3]: 17.1 µM
Dox/P.a: concentration required to restore doxycycline activity (combination MIC) [4]: 53.4 µM
MIC [5]: > 107 µM
Eryth/E.c: concentration required to restore erythromycin activity (combination MIC) [6]: 26.7 µM
MIC [7]: > 34.2 µM
MIC [8]: > 34.2 µM
MIC [9]: 107 µM
MIC [10]: 13.3 µM
MIC [11]: > 34.2 µM
Compound: O=C(CCC(=O)Nc1ccc2ccccc2c1)NCCCNCCCCCCCCNCCCNC(=O)CCC(=O)Nc1ccc2ccccc2c1.O=C(O)C(F)(F)F.O=C(O)C(F)(F)F [Compound 20d, N^1,N^8-Bis(3-(4-(naphthalen-2-ylamino)-4-oxobutanamido)propyl)octane-1,8-diaminium 2,2,2-trifluoroacetate]
IC50 [2]: > 34.2 µM
Dox/P.a fold change [4]: > 2 fold
Eryth/E.c fold change [6]: 4 fold
Hemolysis HC10 [12]: >34.2 µM

MIC [1]: > 33.2 µM
MIC [3]: 16.6 µM
Dox/P.a: concentration required to restore doxycycline activity (combination MIC) [4]: 104 µM
MIC [5]: 518 µM
Eryth/E.c: concentration required to restore erythromycin activity (combination MIC) [6]: 13 µM and 13.0 µM
MIC [7]: 16.6 µM
MIC [8]: > 33.2 µM
MIC [9]: 104 µM
MIC [10]: 12.9 µM
MIC [11]: > 33.2 µM
Compound: O=C(CCC(=O)Nc1ccc2ccccc2c1)NCCCNCCCCCCCCCCNCCCNC(=O)CCC(=O)Nc1ccc2ccccc2c1.O=C(O)C(F)(F)F.O=C(O)C(F)(F)F [Compound 20e, N^1,N^10-Bis(3-(4-(naphthalen-2-ylamino)-4-oxobutanamido)propyl)decane-1,10-diaminium 2,2,2-trifluoroacetate]
IC50 [2]: > 33.2 µM
Dox/P.a fold change [4]: 5 fold
Eryth/E.c fold change [6]: 8 fold
Hemolysis HC10 [12]: >33.2 µM
